Data as given in US20220184081A1, “ANTIPRURITIC AGENT USING PAC1 RECEPTOR ANTAGONIST” (KAGOSHIMA UNIVERSITY, priority 2019, published 2022).

How the values were obtained:
[1] = system: serotonin (5-HT)-induced itch mouse model; assay: Serotonin (5-HT)-induced itch mouse model; format: in vivo; conditions: intrathecal pre-administration 30 minutes before 5-HT 50 nmol i.d.; PA-8 0.1 or 1 nmol; P6-38 100 pmol; FIG. 1
Method: 5-HT (50 nmol, 10 μL) was intradermally injected into the waist of each mouse (intradermal injection, i.d.). The reaction of the mice to bite, lick or scratch the injected site was defined as an itch behavior, and the action time was measured every 5 minutes. […] SLN indicates the effects obtained in the case of administering normal saline instead of 5-HT. ACSF is an abbreviation of an artificial cerebrospinal fluid, which was a solvent for P6-38 and PA-8.

[2] = system: dry skin itch mouse model; assay: Dry skin itch mouse model (AEW treatment); format: in vivo, ICR mice; conditions: oral PA-8 3, 10 or 30 mg/kg; observed 1 hour from 30 minutes after administration; FIG. 3
Method: The present test was carried out with reference to the method of Miyamoto et al. that is a test system published as a method for evaluating itch in animals (Miyamoto T., Nojima H., Shinkado T., et al.: Itch-associated response induced by experimental dry skin in mice, Jpn. J. Phamacol., 88, 285-292, 2002).
Five-week-old ICR mice (40 mice) were each placed in a cage, and were then conditioned for 1 week. Thereafter, three days before initiation of the test, the rostral back of each mouse was shaved (treatment method A). The thus shaved 40 mice were divided into 5 groups (8 mice/group), namely, into a 3 mg/kg PA-8 oral (p.o.) administration group, a 10 mg/kg PA-8 oral (p.o.) administration group, a 30 mg/kg PA-8 oral (p.o.) administration group, a comparative group, and a control group.
In the PA-8 administration groups, the mice, which had undergone a shaving treatment (treatment method A), were subjected to ether anesthesia. Thereafter, a cotton (2×2 cm) impregnated with a mixed solution of acetone (A): diethyl ether (E) (1:1) was applied to the rostral back of each mouse for 15 seconds, and then, a cotton impregnated with ion exchange water (W) was applied thereto for 30 seconds [hereinafter, a series of treatments are abbreviated as an AEW treatment (treatment method B)]. The AEW treatment was carried out twice a day, with intervals of 8 hours, for 5 days. […]

[3] = target: T1, mouse VPAC1 receptor (Mus musculus, UniProt P97751); assay: CREB phosphorylation by PACAP stimulus, Western blot, VPAC1/CHO cells; format: cell-based; conditions: PA-8 10 pM to 10 nM, FIG. 4B
T1 construct: expressed in transfected cells; host or cells: CHO cells
T1 sequence (P97751 31-459): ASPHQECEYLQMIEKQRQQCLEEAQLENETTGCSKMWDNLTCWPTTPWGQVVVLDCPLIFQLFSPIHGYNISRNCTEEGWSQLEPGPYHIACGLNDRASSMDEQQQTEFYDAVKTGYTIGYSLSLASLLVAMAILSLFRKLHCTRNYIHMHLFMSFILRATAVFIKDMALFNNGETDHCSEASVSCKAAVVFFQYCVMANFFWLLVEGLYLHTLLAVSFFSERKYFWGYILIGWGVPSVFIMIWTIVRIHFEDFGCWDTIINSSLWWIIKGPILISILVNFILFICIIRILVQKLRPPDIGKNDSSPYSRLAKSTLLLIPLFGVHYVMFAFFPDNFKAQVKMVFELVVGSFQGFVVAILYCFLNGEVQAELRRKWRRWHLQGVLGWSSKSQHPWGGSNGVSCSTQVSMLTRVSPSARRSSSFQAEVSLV
Method: The effect of each compound on the phosphorylation of CREB (cAMP-responsive element-binding protein) produced by a PACAP stimulus was examined by Western blot analysis using an anti-phosphorylated CREB (pCREB) antibody with a mouse PAC1 receptor-expressing CHO cells (PAC1/CHO cells) and a mouse VPAC1 receptor-expressing CHO cells (VPAC1/CHO cells).
Specifically, treatment with a compound (PA-8, compound 2j and compound 2o) at 10 pM to 10 nM or a solvent therefor, DMSO (VEH: 0.1% DMSO-containing phosphate buffer solution) was performed for 30 minutes, 1 nM PACAP was then added, and protein was recovered within 30 minutes after a PACAP stimulus.

[4] = system: PACAP-induced itch behavior in mice; assay: Itch behavior induced by PACAP intradermal administration; format: in vivo, mouse; conditions: simultaneous intradermal administration with PACAP, 0.01 to 1 nmol; FIG. 7A, 8, 9
From the text: SLN indicates intradermal administration of normal saline. DMSO (10% solution, dissolved in normal saline) is a solvent for PA-8.
SLN indicates intradermal administration of normal saline. VEH (10% DMSO solution, dissolved in normal saline) is a solvent for PA-8 and the compound 2o.
SLN indicates intradermal administration of normal saline. VEH (10% DMSO solution, dissolved in normal saline) is a solvent for PA-9 and the compound 3d.

[5] = system: atopic dermatitis mouse model; assay: Atopic dermatitis mouse model (DNFB); format: in vivo, ICR mice; conditions: 30 mg/kg p.o. 30 minutes before 1 hour video observation; FIG. 13
Method: The present test was carried out with reference to the method of Kitamura et al. that is a test system published as a method for evaluating itch in animals (Kitamura A., Takata R., Aizawa S., et al.: A murine model of atopic dermatitis can be generated by painting the dorsal skin with hapten twice 14 days apart, Scientific Rep., 8: 5988, 2018).
Five-week-old ICR mice (30 mice) were each placed in a cage, and were then conditioned for 1 week. Thereafter, three days before initiation of the test, the waist of each mouse was shaved. On the experiment start date, for the purpose of destroying the function of skin barrier, tape stripping was carried out, and 0.15% 2,4-dinitrofluorobenzene (DNFB) solution [acetone/olive oil (3:1)] was applied to the shaved waist of each mouse, using a 100-μIL pipette. Seven days later, the 0.15% DNFB solution was applied thereto once again, and two hours later, video observation was carried out for 1 hour. The shaved 30 mice were divided into 5 groups (6 mice per group), namely, a 30 mg/kg PA-8 oral (p.o.) administration group, a 30 mg/kg compound 2o oral (p.o.) administration group, a 30 mg/kg PA-9 oral (p.o.) administration group, a 30 mg/kg compound 3d (p.o.) administration group, and a solvent administration group (VEH: oral administration of 10% DMSO aqueous solution). Oral administration was carried out 30 minutes before initiation of the video observation.
An outline of the procedures of a behavioral experiment using the atopic dermatitis mouse model is shown in FIG. 12, and the results obtained by evaluating the time spent in scratching of each group are shown in FIG. 13.

- CREB phosphorylation by PACAP (1 nM) [3]: did not suppress CREB phosphorylation
SMILES: C=CCOc1ccc(C2CC(=O)Nc3nc(N)[nH]c(=O)c32)cc1OC (centres unmarked) [PA-8]
- 5-HT-induced itch behavior (bite, lick or scratch the injected site, action time) [1]: almost completely suppressed
- scratching behavior induced by the AEW treatment (time spent in scratching) [2]: significantly suppressed
- biting, licking or scratching behavior induced by PACAP (100 pmol) intradermal administration [4]: suppressed in a dose-dependent manner
- itch behavior induced by the DNFB treatment (time spent in scratching) [5]: significantly suppressed
